Measured values published in the supplement of paper PMC10307832.

Tests used:
Assay in all cases: relative viability (nuclei count vs DMSO), 5 days (fraction); higher = more cells survive
Bicalutamide + Lapatinib = compound: CC(O)(CS(=O)(=O)c1ccc(F)cc1)C(=O)Nc1ccc(C#N)c(C(F)(F)F)c1 [Bicalutamide] + CS(=O)(=O)CCNCc1ccc(-c2ccc3ncnc(Nc4ccc(OCc5cccc(F)c5)c(Cl)c4)c3c2)o1 [Lapatinib] (partner 2 µM)
How it was run: (§1)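 Values are medians from duplicate plates. Each reflects relative viability, defined as the nuclei count of treated wells over that of vehicle wells. Lung cancer cell lines in 1536-well plates were pin-tool dosed one day after seeding with one drug alone or with a fixed anchor-drug dose plus five library-drug doses (not always all listed) in √10 steps, then fixed, stained and imaged at 4× after 5 days.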

[1] = compound: C(C(=O)C(=O)O)Br [Bromopyruvate] + N=C(N)NC(=N)NCCc1ccccc1 [Phenformin] (partner 250 µM)
How it was run: as §1

[2] = compound: CC(O)(CS(=O)(=O)c1ccc(F)cc1)C(=O)Nc1ccc(C#N)c(C(F)(F)F)c1 [Bicalutamide] + O=C(CCCCCCC(=O)Nc1ccccc1)NO [Vorinostat] (partner 1 µM)
How it was run: as §1

[3] = compound: C(C(=O)C(=O)O)Br [Bromopyruvate] + O=C(CCCCCCC(=O)Nc1ccccc1)NO [Vorinostat] (partner 1 µM)
How it was run: as §1

Cell Line | relative viability (Bicalutamide + Lapatinib; first compound 0.08 µM) | relative viability (Bicalutamide + Lapatinib; first compound 0.253 µM) | relative viability (Bicalutamide + Lapatinib; first compound 0.8 µM) | relative viability (Bicalutamide + Lapatinib; first compound 2.53 µM) | relative viability ([1]; first compound 1 µM) | relative viability ([1]; first compound 3.162 µM) | relative viability ([1]; first compound 10 µM) | relative viability ([1]; first compound 31.62 µM) | relative viability ([1]; first compound 100 µM) | relative viability ([2]; first compound 0.08 µM) | relative viability ([2]; first compound 0.253 µM) | relative viability ([2]; first compound 0.8 µM) | relative viability ([2]; first compound 2.53 µM) | relative viability ([3]; first compound 1 µM) | relative viability ([3]; first compound 10 µM) | relative viability ([3]; first compound 100 µM) | relative viability ([3]; first compound 3.162 µM) | relative viability ([3]; first compound 31.62 µM)
PC-3 [JPC-3] | 0.476 | 0.421 | 0.456 | 0.476 | 0.495 | 0.488 | 0.458 | 0.493 | 0.493 | 0.809 | 0.887 | 1.14 | 0.808 | 1.1 | 0.536 | 0.764 |  | 
NCI-H661 | 0.482 | 0.493 | 0.447 | 0.493 | 0.294 | 0.263 | 0.237 | 0.287 | 0.276 | 0.768 | 0.805 | 0.771 | 0.806 | 0.767 | 0.779 | 0.712 | 0.798 | 0.712
NCI-H1666 | 0.733 | 0.652 | 0.815 | 0.662 | 0.598 | 0.582 | 0.606 | 0.605 | 0.496 | 0.921 | 1.05 | 1.14 | 0.981 | 1.01 | 1.08 | 0.858 | 0.978 | 0.931
NCI-H2087 | 1.24 | 1.01 | 1.15 | 1 | 0.493 | 0.445 | 0.578 | 0.414 | 0.392 | 0.668 | 0.643 | 0.812 | 0.856 | 0.814 | 0.751 | 0.375 | 0.551 | 0.528
NCI-H1734 | 1.18 | 0.904 | 1.25 | 0.971 | 0.342 | 0.471 | 0.513 | 0.392 | 0.385 | 0.85 | 0.701 | 1.05 | 0.673 | 0.762 | 0.858 | 0.724 | 0.86 | 0.736
NCI-H2228 | 0.707 | 1.04 | 1.23 | 1.02 | 0.341 | 0.418 | 0.178 | 0.285 | 0.334 | 0.584 | 0.795 | 0.993 | 0.581 | 0.454 | 0.764 | 0.372 | 0.723 | 0.581
EMC-BAC-2 | 0.85 | 0.735 | 0.912 | 0.833 | 0.517 | 0.519 | 0.637 | 0.548 | 0.571 | 0.5 | 0.434 | 0.833 | 0.289 | 0.719 | 0.277 | 0.389 | 0.336 | 
NCI-H2009 | 1.23 | 0.997 | 1.2 | 0.758 | 0.476 | 0.493 | 0.507 | 0.475 | 0.344 | 0.732 | 0.719 | 0.898 | 0.71 | 0.72 | 0.622 | 0.266 | 0.682 | 0.546
NCI-H596 | 1.02 | 1.17 | 1.16 | 1.18 | 0.694 | 0.724 | 0.501 | 0.695 | 0.822 | 0.679 | 0.571 | 0.66 | 0.648 | 0.572 | 0.628 | 0.757 | 0.633 | 0.584
NCI-H650 | 1.04 | 1.07 | 1.07 | 0.644 | 0.532 | 0.45 | 0.414 | 0.462 | 0.47 | 0.449 | 0.518 | 0.513 | 0.367 | 0.438 | 0.411 | 0.392 | 0.487 | 0.441
SW 1573 | 1.03 | 0.909 | 1.3 | 1.11 | 0.387 | 0.446 | 0.385 | 0.34 | 0.0639 | 1.26 | 0.586 | 1.12 | 0.652 | 0.799 | 0.924 | 0.0513 | 0.861 | 0.478
NCI-H1650 | 0.905 | 0.655 | 1.09 | 0.74 | 0.414 | 0.429 | 0.475 | 0.449 | 0.291 | 0.685 | 0.586 | 0.581 | 0.611 | 0.549 | 0.505 | 0.304 | 0.388 | 0.54
NCI-H2023 | 0.727 | 0.866 | 1.21 | 0.648 | 0.39 | 0.415 | 0.478 | 0.419 | 0.429 | 0.69 | 0.608 | 0.893 | 0.349 | 0.547 | 0.619 | 0.615 | 0.687 | 0.464
LOU-NH91 | 0.816 | 0.638 | 0.856 | 0.752 | 0.759 | 0.77 | 0.74 | 0.74 | 0.747 | 0.985 | 0.723 | 0.971 | 0.893 | 1.07 | 0.912 | 1 | 0.961 | 1
NCI-H3122 | 0.983 | 0.962 | 1.04 | 1.04 | 0.401 | 0.398 | 0.394 | 0.374 | 0.376 | 1.01 | 0.946 | 1.07 | 0.887 | 1.05 | 1.11 | 0.718 | 0.991 | 0.829
LCLC-97TM1 | 0.857 | 0.971 | 1.1 | 1 | 0.411 | 0.397 | 0.359 | 0.439 | 0.415 | 0.728 | 0.644 | 0.972 | 0.54 | 0.666 | 0.887 | 0.655 | 0.671 | 0.601
NCI-H647 | 1.07 | 0.954 | 1.75 | 0.748 | 0.5 | 0.637 | 0.578 | 0.494 | 0.494 | 0.474 | 0.655 | 0.575 | 0.435 | 0.559 | 0.399 | 0.334 | 0.724 | 0.51
NCI-H838 | 1.09 | 0.881 | 1.38 | 0.734 | 0.557 | 0.604 | 0.656 | 0.603 | 0.555 | 0.72 | 0.707 | 0.749 | 0.564 | 0.7 | 0.652 | 0.607 | 0.684 | 0.631
